Where a name gives a salt, the structure may show the parent alone.
Key:
[1] = test system: patient; test: one-year high-dose tolerability in a patient; assay type: in vivo, human; details: up to 6,000 mg/day for one year in a patient
[2] = test system: Amyotrophic Lateral Sclerosis (ALS) patients; test: Phase 1 clinical trial in ALS, patient testimonials; assay type: in vivo, human; details: 1000 mg BID, dose taken without food; went away on eating
Protocol: A Phase 1 clinical trial was conducted with the Inventor supplying the anhydrous enol-oxaloacetate drug. Typically, Phase 1 clinical trials focus on the safety of a proposed drug, but patient response efficacy is also important and is noted. […] My name is […]. I was diagnosed with Bulbar onset ALS by Dr. Jawdat at the KU Medical Center in Kansas City KS on Oct. 14, 2020. […] I have muscle fasciculations pretty much all over my body at times and most are constant. The first 4 to 5 days taking the supplement, I did feel like they intensified an hour to two hours after taking it, and it lasted for approximately an hour or two. After those 4 or 5 days, it went back to the normal strength. At approximately the third week of taking the supplement I began to notice my tongue movement had better range of motion. I could see it pushing out the side of my cheek, I couldn't get it over there before. I also have felt like my left hand has gained a little strength and grip and I feel like I have a bit more strength in my left wrist. I do however feel like most things are still declining, but with such a short time of trying the supplement, I want to keep taking it to see if things can keep improving/changing. I am currently not on any ALS medications but do take some vitamins. • Patient 2. My spouse, Nathan, was part of a study with oxaloacetate for ALS. […]

[3] = test system: post-COVID-19 fatigue patient; test: post-COVID-19 fatigue case (Example 5); assay type: in vivo, human; details: 500 mg BID
Protocol: Afterwards, although their fever was resolved, they experienced fatigue so extreme that it was difficult for them to walk to the bathroom. They started taking 500 mg anhydrous enol-oxaloacetate BID for 45 days. Within 3 days 80% of fatigue was resolved. After 30 days, 100% of their fatigue was resolved.

[4] = test system: post-COVID-19 fatigue patient; test: post-COVID-19 fatigue case, physician (Example 3); details: 500 mg BID; for Visual Fatigue Score: baseline 3, range 0 worst to 10 no fatigue; for Chalder Fatigue Score: range 33 worst to 0 no fatigue; for Fatigue Severity Score: baseline 54, range 63 worst to 9 no fatigue; for PROMIS Fatigue 7a: range 35 worst to 7 no fatigue

Structure (SMILES): O=C(O)CC(=O)C(=O)O [anhydrous enol-oxaloacetate, hydroxy fumarate]
- side effects [1]: no negative side effects
- side effect noticed by the patient [2]: upset stomach
- fatigue resolved ([3]; after 30 days): 100%
- fatigue resolved ([3]; within 3 days): 80%
- Visual Fatigue Score ([4]; Final, Dec. 3, 2020): 10
- Chalder Fatigue Score ([4]; Final, Dec. 3, 2020, baseline 22): 2
- Fatigue Severity Score ([4]; Final, Dec. 3, 2020): 20
- PROMIS Fatigue 7a ([4]; Final, Dec. 3, 2020): 11
- Visual Fatigue Score ([4]; Nov. 3, 2020): 4
- Fatigue Severity Score ([4]; Nov. 3, 2020): 54
- PROMIS Fatigue 7a ([4]; Nov. 3, 2020, baseline N/A): 25
- Chalder Fatigue Score ([4]; Nov. 3, 2020, baseline Oct. 14, 2020 22): 16

— patent US20240075000A1 (priority 2021, published 2024)
